Test results reported in patent publication US11040038B2, “Methods for treating diseases associated with abnormal ACVR1 expression and ACVR1 inhibitors for use in the same” (Sumitomo Dainippon Pharma Oncology, Inc., priority 2018, dated 2021).
Read-outs that look alike come from different tables or passages of the source.

Key:
[1] = system: SMAD1/5 phosphorylation in BMP2 stimulated HepG2 cells; assay: Inhibition of SMAD1/5 phosphorylation in BMP2 stimulated HepG2 cells; assay type: cell-based; conditions: Homo sapiens; HepG2 cells stimulated with BMP2
Excerpt: SMAD proteins are transcription factors involved in signaling downstream of TGFβ receptors. The TGFβ receptor ALK2 phosphorylates SMADs when activated by bone morphogenic proteins such as BMP2, which leads to SMAD nuclear translocation, transcriptional initiation and increased expression of genes like HAMP which codes for the peptide hormone hepcidin. Therefore, compounds that target ALK2 should inhibit BMP induced SMAD phosphorylation. In order to evaluate the in vitro potency of Compound 2, HepG2 cells were stimulated with the ALK2 ligand BMP2 in the presence or absence of various concentrations of Compound 2.

[2] = Pharmacokinetic and tissue distribution study; assay type: in vivo, CD-1 male mice; conditions: mice, 20 mg/kg PO; for Cmax / Tmax / half-life / AUC(0-t) / AUC: male, CD-1, mouse; for AUC: read-out: AUC0-?
Procedure: An additional pharmacokinetic and tissue distribution study was conducted to comprehensively evaluate Compound 2 exposure in multiple mouse organs. CD-1 male mice were dosed 20 mg/kg, PO with Compound 2 formulated in 20% solutol and 80% saline. Plasma and organs were collected at nine (9) time points and the drug concentrations were determined by LC-MS/MS. […] The results confirmed exposure in clinically relevant target organs, including brain and liver (Table 7).

## COc1cc(Nc2nccc(Nc3cccnc3-c3ccccn3)n2)ccc1N1CCN(C)CC1 [Compound 2, N^4-(2,2′-bipyridin-3-yl)-N^2-(3-methoxy-4-(4-methylpiperazin-1-yl)phenyl)pyrimidine-2,4-diamine]
[1]
  EC50: 162 nM
[2]; adrenals
  Cmax: 13800 ng/g
  Tmax: 1.3 h
  half-life: 3.3 h
  AUC0-?: 76421 ng*h/G
  AUCLast: 75782 ng*h/G
[2]; bladder
  Cmax: 2220 ng/g
  Tmax: 3 h
  half-life: 3.1 h
  AUC0-?: 17546 ng*h/G
  AUCLast: 17386 ng*h/G
[2]; bone marrow
  AUC(0-t): 1940 ng·h/mL
  Cmax: 240 ng/mL
  Tmax: 4.5 h
  half-life: 4.6 h
  AUC: 2020 ng·h/mL
[2]; brain
  Cmax: 1690 ng/g
  Tmax: 3.2 h
  half-life: 2.6 h
  AUC0-?: 7756 ng*h/G
  AUCLast: 7729 ng*h/G
[2]; intestine
  Cmax: 20200 ng/g
  Tmax: 1.8 h
  half-life: 3.6 h
  AUC0-?: 52421 ng*h/G
  AUCLast: 51891 ng*h/G
[2]; kidney
  Cmax: 31100 ng/g
  Tmax: 2.3 h
  half-life: 2.5 h
  AUC0-?: 152790 ng*h/G
  AUCLast: 152492 ng*h/G
[2]; liver
  Cmax: 79900 ng/g
  Tmax: 0.8 h
  half-life: 3.3 h
  AUC0-?: 286210 ng*h/G
  AUCLast: 284827 ng*h/G
[2]; lung
  Cmax: 18300 ng/g
  Tmax: 1.3 h
  half-life: 2.8 h
  AUC0-?: 76908 ng*h/G
  AUCLast: 76622 ng*h/G
[2]; pancreas
  Cmax: 10600 ng/g
  Tmax: 3.2 h
  half-life: 2.6 h
  AUC0-?: 53297 ng*h/G
  AUCLast: 53163 ng*h/G
[2]; plasma
  AUC(0-t): 2340 ng·h/mL
  Cmax: 378 ng/mL
  Tmax: 1 h
  half-life: 3.8 h
  AUC: 2380 ng·h/mL
[2]; spleen
  Cmax: 36200 ng/g
  Tmax: 6 h
  half-life: 13.3 h
  AUC0-?: 627382 ng*h/G
  AUCLast: 406119 ng*h/G
[2]; stomach
  Cmax: 17300 ng/g
  Tmax: 0.5 h
  half-life: 3.6 h
  AUC0-?: 32717 ng*h/G
  AUCLast: 32467 ng*h/G
